Assay [1] deals with 340 wild-type protein kinases. Kind of assay: PanQinase wild-type kinase panel, selectivity score. It counts as biochemical. To be noted: 1 μM; share of kinases with residual activity <50%; 340 wild-type protein kinase assays. The procedure: Screening procedures were performed in accordance with the company's on-line protocol [accessed on-line Mar.
The selectivity score for a particular compound at a particular concentration was calculated by using the following formula: Selectivity Score=(count of data points <50%)/(total number of data points).

The subject of assay [2] is GBM-U251MG. Kind of assay: GBM cell proliferation, U251MG (cell-based cancer efficacy assays). To be noted: Homo sapiens, U-251; Table 6B.
For assay [3], the system named is U-87 MG. Kind of assay: Glioblastoma multiforme cell proliferation assay (CellTiter Glo), U-87 MG. As to conditions: Homo sapiens. It counts as cell-based. Here is the method: (§1) Inhibition of glioblastoma multiforme cell proliferation by compounds of the present invention was evaluated in U-87 MG (ATCC; Cat. No. HTB-14; Lot. No. 5018014) and T98G (ATCC; Cat. No. CRL-1690; Lot. No. 58267513) cell lines. These are adherent cell lines isolated from glioblastoma multiforme/malignant glioma, which express both CXCR4 and BTK (see Zhou et al. 2002 and Yue et al. 2017).
(§2) Cell viability was analyzed with the CellTiter Glo Cell assay kit ([…], Cat. No. G7573, Lot. No. 0000474103), according to the manufacturer's instruction.
(§3) U-87 MG and T98G cells were seeded onto 384-well opaque-walled clear bottom plates (Corning, Cat. No. 3765, Lot. No. 34319047) in EMEM (Invitrogen, Cat. No. 11095-080; Lot. No. 2276656) supplemented with 10% FBS (Invitrogen, Cat. No. 10099-141C, Lot. No. 2145169CP), at a seeding density of 1000 or 1200 cells per well, respectively, and then incubated in 5% CO2 at 37° C. overnight.
(§4) Compounds were prepared as stock solutions of 30 mM in DMSO (Sigma, Cat. No. 276855-1L. Lot. No. SHBL5610). Compounds were added to the cells, with 10 dose points in duplicates, in 3-fold dilution from a top concentration of 30 μM (final DMSO concentration […]), and incubated in 5% CO2 at 37° C. for 96 hr.
(§5) The 384-well plates were equilibrated at room temperature for approximately 30 min. 25 μl of CellTiter-Glo® Reagent was added to each well and mixed for 10 min on an orbital shaker to induce cell lysis. The 384-well plates were incubated at room temperature for 10 min to stabilize luminescent signal. Luminescence was detected on a PerkinElmer EnVision Multimode Plate Reader (measurement time 0.1s) as relative luminescence units (RLU).
On the technique in general: ATP-based viability assays read luminescence as a measure of living cells.

Assay [4] relates to Ramos cell line. As to conditions: read-out: IC50, inhibition of cell proliferation, Chu et al. 2018; cited from earlier work.
For assay [5], the target named is T1, CDK13/CycK (Homo sapiens, UniProt Q14004).
T1 construct: purchased Reaction Biology Europe GmbH
Briefly: PanQinase kinase panel: CDK13/CycK. It counts as biochemical. To be noted: read-out: INHIBITORY EFFECT @ 1 uM: CDK13/CycK. The procedure:
Screening procedures were performed in accordance with the company's on-line protocol [accessed on-line Mar. 25, 2022 at reaction biology.com/assay-protocol-panqinase]. Inhibitory activity of 50% or greater at concentrations of 1 μM are highlighted for all five compounds tested.
For each kinase, the median value of the cpm of three wells was defined as “low control” (n=3). This value reflects unspecific binding of radioactivity to the plate in the absence of a protein kinase but in the presence of the substrate. Additionally, for each kinase the median value of the cpm of three other wells was taken as the “high control,” i.e. full activity in the absence of any inhibitor (n=3). The difference between high and low control of each enzyme was taken as 100% activity.
As part of the data evaluation the low control of each kinase was subtracted from the high control value as well as from their corresponding “compound values”. The residual activity (in %) for each compound well was calculated by using the following formula: Res. Activity (%)=100×[(signal of compound−low control)/(high control−low control)].

The test system of assay [6] is T98G. Briefly: Glioblastoma multiforme cell proliferation assay (CellTiter Glo), T98G. It counts as cell-based. As to conditions: Homo sapiens. The procedure:
as §1, §2, §3, §4, §5

Assay [7] has as its system MWCL-1. Kind of assay: Apoptosis assay (annexin V flow cytometry) in Waldenstrom's Macroglobulinemia cells. It counts as cell-based, human. To be noted: Homo sapiens; numeric; read-out: Apoptosis IC50 (μM) in single-mutant WM Cell Lines (MWCL-1). Here is the method:
Waldenström's Macroglobulinemia cells (MWCL-1) and the bone marrow stromal cells (BMSCs; HS-27A) were used in this study. The MWCL-1 is a lymphoplasmacytic lymphoma established from the bone marrow aspirate of a patient diagnosed with Waldenström's Macroglobulinemia. It was provided by Dr Stephen M. Ansell (MAYO file number 2021-121; 200 First Street SW, Rochester, Minnesota). This cell line was cultured in RPMI-1640 (Fisher Scientific) containing 10% fetal bovine serum (FBS) (Sigma Aldrich, St Louis, MO), 100U/ml of Penicillin-Streptomycin (Gibco™, ThermoFisher Scientific). The HS-27A bone marrow stromal cells were obtained from ATCC. They were maintained in RPMI 1640 (Fisher Scientific) supplemented with 100U/ml of Penicillin-Streptomycin (Gibco™, ThermoFisher Scientific) and 10% FBS (TakaraBio). Cells were cultured in a 37° C. tissue culture CO2 incubator.
For studies with compounds using a co-culture system of MWCL-1 and BMSCs, BMSCs were cultured in a 96-, 48- or 24-well plates and cultured until the 90% confluence was reached. […] After 1 hour, the MWCL-Icells were added to the BMSC to create a co-culture system. The cells were co-incubated for 72 hours. After incubation time, cell viability, apoptosis, and IgM release were measured.
For studying the effect of compounds on inducing apoptosis of Waldenström Macroglobulinemia cells (MWCL-1). Cells were washed with PBS, resuspended in Annexin V binding buffer (Biolegend), and stained with Alexa Fluor 647 annexin V (Biolegend), Propidium Iodide (BD Pharmigen), and CD45 antibody (Biolegend) for 15 minutes at RT and analyzed by flow cytometry. Data were collected on an CytoFLEX S Flow Cytometer (Beckman Coulter) and analysed with FCS Express Software (De Novo Software). Annexin V positive cells were considered apoptotic.
(In general: In flow cytometry, cells or beads pass a laser one at a time.)

Assay [8] concerns WM patients. To be noted: cited from earlier work.

pIC50: −log10 of the molar value. Where two headings read alike, the source gives them in different places.

Consider two compounds from patent US20250326753A1, “DUAL CXCR4-BTK INHIBITORS” (X4 Pharmaceuticals, Inc., priority 2022, published 2025).

T1 sequence (Q14004 whole entry): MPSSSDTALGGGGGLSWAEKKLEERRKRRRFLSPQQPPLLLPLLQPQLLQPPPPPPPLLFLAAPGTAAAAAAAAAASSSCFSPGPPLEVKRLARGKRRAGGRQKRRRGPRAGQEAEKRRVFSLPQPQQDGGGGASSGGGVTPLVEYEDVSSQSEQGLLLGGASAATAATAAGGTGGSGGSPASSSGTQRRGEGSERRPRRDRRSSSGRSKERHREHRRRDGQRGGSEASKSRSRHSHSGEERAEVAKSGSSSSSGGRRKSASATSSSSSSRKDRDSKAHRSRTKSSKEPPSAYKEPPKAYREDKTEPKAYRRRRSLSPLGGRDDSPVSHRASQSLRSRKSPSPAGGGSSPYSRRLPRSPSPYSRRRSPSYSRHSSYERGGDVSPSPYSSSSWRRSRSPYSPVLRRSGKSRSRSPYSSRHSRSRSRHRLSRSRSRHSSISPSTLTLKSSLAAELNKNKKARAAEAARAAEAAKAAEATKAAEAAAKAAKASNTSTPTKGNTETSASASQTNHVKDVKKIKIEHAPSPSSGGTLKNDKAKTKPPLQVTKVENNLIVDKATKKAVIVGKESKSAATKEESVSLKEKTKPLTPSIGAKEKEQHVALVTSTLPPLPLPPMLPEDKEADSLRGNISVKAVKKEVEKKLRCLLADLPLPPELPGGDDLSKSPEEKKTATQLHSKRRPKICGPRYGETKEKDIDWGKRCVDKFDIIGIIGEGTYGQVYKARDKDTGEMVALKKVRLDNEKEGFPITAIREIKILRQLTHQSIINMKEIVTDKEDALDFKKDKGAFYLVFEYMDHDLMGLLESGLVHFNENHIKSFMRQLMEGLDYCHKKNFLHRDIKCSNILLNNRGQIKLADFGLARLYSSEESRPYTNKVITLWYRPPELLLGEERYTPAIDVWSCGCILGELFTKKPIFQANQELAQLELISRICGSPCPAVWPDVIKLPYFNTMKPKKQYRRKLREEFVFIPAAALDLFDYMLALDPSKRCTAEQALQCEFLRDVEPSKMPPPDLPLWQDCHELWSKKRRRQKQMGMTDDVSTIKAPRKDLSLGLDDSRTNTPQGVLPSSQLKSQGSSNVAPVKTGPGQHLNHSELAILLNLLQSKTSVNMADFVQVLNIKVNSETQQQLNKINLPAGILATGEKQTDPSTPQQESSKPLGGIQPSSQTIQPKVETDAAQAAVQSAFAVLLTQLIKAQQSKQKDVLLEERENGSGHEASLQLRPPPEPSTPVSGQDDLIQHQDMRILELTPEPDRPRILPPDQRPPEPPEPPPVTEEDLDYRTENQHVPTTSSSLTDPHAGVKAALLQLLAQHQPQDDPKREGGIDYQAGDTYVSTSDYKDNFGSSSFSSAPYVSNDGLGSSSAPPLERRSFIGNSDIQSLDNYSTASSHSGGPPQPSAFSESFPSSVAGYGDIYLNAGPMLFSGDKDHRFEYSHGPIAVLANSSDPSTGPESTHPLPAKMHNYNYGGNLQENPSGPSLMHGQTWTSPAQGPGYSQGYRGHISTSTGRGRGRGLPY
T1 sequence (O75909 whole entry partner): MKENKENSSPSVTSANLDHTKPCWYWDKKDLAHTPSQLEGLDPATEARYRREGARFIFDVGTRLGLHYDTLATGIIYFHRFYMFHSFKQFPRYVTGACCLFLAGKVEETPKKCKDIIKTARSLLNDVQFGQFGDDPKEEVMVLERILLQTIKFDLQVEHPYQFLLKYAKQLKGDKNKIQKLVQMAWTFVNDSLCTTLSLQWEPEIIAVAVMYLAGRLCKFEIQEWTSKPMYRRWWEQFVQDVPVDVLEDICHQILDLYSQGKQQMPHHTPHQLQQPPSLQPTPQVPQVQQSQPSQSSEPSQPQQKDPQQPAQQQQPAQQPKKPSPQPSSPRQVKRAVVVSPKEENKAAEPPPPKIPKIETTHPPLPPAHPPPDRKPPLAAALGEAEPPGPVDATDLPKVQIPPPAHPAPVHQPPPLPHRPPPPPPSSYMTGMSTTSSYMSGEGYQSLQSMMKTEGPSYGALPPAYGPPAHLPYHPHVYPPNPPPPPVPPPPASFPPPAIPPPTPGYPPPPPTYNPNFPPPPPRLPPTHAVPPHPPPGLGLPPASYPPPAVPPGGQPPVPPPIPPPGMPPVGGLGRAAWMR

Regarding `Cc1cc(-c2ccnc(Nc3cnn(C)c3)n2)ccc1CNC(=O)N1CC(OC(C)C)C1` [BIIB-068, reference compound], in assay [1], the “Selectivity Score” value came to 0.009.
With `C=CC(=O)N1CCC[C@@H](n2nc(-c3ccc(Oc4ccccc4)cc3)c3c(N)ncnc32)C1` [Ibrutinib, ibrutinib, reference compound], the figures for the Emax in assay [2], in assay [3] (read-out: GBM-U87MG Cell Proliferation Emax %) and in assay [6] (read-out: GBM-T-98G Cell Proliferation Emax %) were 57%, 52% and 73%, respectively. The pIC50 is 6.51 in assay [2] and 6.06 in assay [4]. Moreover, the IC50 was above 30 µM in assay [3] (96 h, read-out: U-87 MG IC50 (uM)); 28.5 µM in assay [3] (read-out: GBM-U87MG Cell Proliferation IC50 uM); above 30 µM in assay [6] (96 h, read-out: T98G IC50 (uM)); 24.4 µM in assay [6] (read-out: GBM-T-98G Cell Proliferation IC50 uM); 4.2 µM in assay [7]. Further, in assay [5], the inhibition at 1 µM was below 50%. Moreover, the figures for the VGPR in assay [8] (WM patients with MYD88 L265P CXCR4 WT) and in assay [8] (WM patients with double mutations MYD88 L265P CXCR4 WHIM) were 44.4% and 9.5%, respectively.
